Where “and” joins values, the source holds several entries; their conditions need not be identical. Equal values may be shown once. Toxic doses and inconclusive results are not listed.
Test system: P388 leukemia ip, CD2F1 mice, survival T/C
Test: NCI In Vivo Anticancer Drug Screen. Data for tumor model P388 Leukemia (intraperitoneal) in CD2F1 (CDF1) mice
Settings: endpoint: median survival time, higher = longer survival
Procedure, shortened: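 Mice carrying the transplanted tumor received test compound or vehicle. Survival was recorded in each group, and the value is the treated-group measurement divided by that of the vehicle-treated control group.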

[1] = dose: 100.0 mg/kg/injection, schedule: Q04DX003 (ip), vehicle: saline with Tween-80
[2] = dose: 50.0 mg/kg/injection, schedule: Q01DX005 (ip), vehicle: saline with Tween-80
[3] = dose: 100.0 mg/kg/injection, schedule: Q01DX005 (ip), vehicle: saline with Tween-80
[4] = dose: 50.0 mg/kg/injection, schedule: Q01DX009 (ip), vehicle: Klucel (hydroxypropylcellulose) (HPC)
[5] = dose: 100.0 mg/kg/injection, schedule: Q01DX009 (ip), vehicle: Klucel (hydroxypropylcellulose) (HPC)
[6] = dose: 200.0 mg/kg/injection, schedule: Q01DX009 (ip), vehicle: Klucel (hydroxypropylcellulose) (HPC)
[7] = dose: 60.0 mg/kg/injection, schedule: Q01DX005 (ip), vehicle: saline with Tween-80
[8] = dose: 120.0 mg/kg/injection, schedule: Q01DX005 (ip), vehicle: saline with Tween-80
[9] = dose: 240.0 mg/kg/injection, schedule: Q01DX005 (ip), vehicle: saline with Tween-80
[10] = dose: 60.0 mg/kg/injection, schedule: Q01DX005 (ip), vehicle: Klucel (hydroxypropylcellulose) (HPC)
[11] = dose: 120.0 mg/kg/injection, schedule: Q01DX005 (ip), vehicle: Klucel (hydroxypropylcellulose) (HPC)
[12] = dose: 240.0 mg/kg/injection, schedule: Q01DX005 (ip), vehicle: Klucel (hydroxypropylcellulose) (HPC)
[13] = dose: 25.0 mg/kg/injection, schedule: Q01DX009 (ip), vehicle: saline with Tween-80
[14] = dose: 50.0 mg/kg/injection, schedule: Q01DX009 (ip), vehicle: saline with Tween-80
[15] = dose: 100.0 mg/kg/injection, schedule: Q01DX009 (ip), vehicle: saline with Tween-80
[16] = dose: 200.0 mg/kg/injection, schedule: Q01DX005 (ip), vehicle: saline with Tween-80

## Cc1ccc(CC(=O)O)cc1C
[1]
  T/C: 190 % of control
dose: 200.0 mg/kg/injection, schedule: Q04DX003 (ip), vehicle: saline with Tween-80
  T/C: 113 % of control
dose: 400.0 mg/kg/injection, schedule: Q04DX003 (ip), vehicle: saline with Tween-80
  T/C: 113 % of control

## Nc1ccn(C2OC(C(OC3OC(CO)C(O)C(N)C3O)C(O)C(O)C(O)C(O)CO)C(N)C(O)C2O)c(=O)n1 (stereo unspecified)
dose: 0.1 mg/kg/injection, schedule: Q01DX005 (ip), vehicle: saline
  T/C: 100 % of control
dose: 0.2 mg/kg/injection, schedule: Q01DX005 (ip), vehicle: saline
  T/C: 102 % of control
dose: 0.4 mg/kg/injection, schedule: Q01DX005 (ip), vehicle: saline
  T/C: 107 % of control
dose: 0.8 mg/kg/injection, schedule: Q01DX005 (ip), vehicle: saline
  T/C: 102 % of control

## CCCCCCCCCCC(CCCCCC)C(=O)O (stereo unspecified)
dose: 75.0 mg/kg/injection, schedule: Q01DX001 (ip), vehicle: saline with Tween-80
  T/C: 104 % of control
dose: 150.0 mg/kg/injection, schedule: Q01DX001 (ip), vehicle: saline with Tween-80
  T/C: 104 % of control
dose: 300.0 mg/kg/injection, schedule: Q01DX001 (ip), vehicle: saline with Tween-80
  T/C: 100 % of control

## NC(N)=NCCCSC(=O)C1CCCCC1
[2]
  T/C: 105 % of control
[3]
  T/C: 107 % of control

## O=[N+]([O-])c1cccc(NC(c2ccc(N(CCCl)CCCl)cc2)P(=O)(Oc2ccccc2)Oc2ccccc2)c1 (stereo unspecified)
[4]
  T/C: 95 % of control
[5]
  T/C: 98 % of control
[6]
  T/C: 95 % of control

## CC(C)(C)c1ccc(-c2cc3nc(-c4ccccc4)cc(=O)n3[nH]2)cc1
[7]
  T/C: 100 % of control
[8]
  T/C: 98 % of control
[9]
  T/C: 98 % of control

## CC(C)(C)C(CO)CNc1ccccc1 (stereo unspecified)
[4]
  T/C: 110 % of control
[5]
  T/C: 110 % of control
[6]
  T/C: 107 % of control

## CN1CCOP(=O)(c2ccccc2)N1 (stereo unspecified)
[7]
  T/C: 99 % of control
[8]
  T/C: 100 % of control
[9]
  T/C: 89 % of control

## CC(C)(C(=S)[S-])[P+](c1ccccc1)(c1ccccc1)c1ccccc1
[10]
  T/C: 96 % of control
[11]
  T/C: 92 % of control
[12]
  T/C: 88 % of control

## CSC(SC)=C(C#N)c1nc(SC)c(C#N)c(SC)n1
dose: 50.0 mg/kg/injection, schedule: Q04DX003 (ip), vehicle: saline
  T/C: 102 % of control
dose: 100.0 mg/kg/injection, schedule: Q04DX003 (ip), vehicle: saline
  T/C: 112 % of control

## CCN(CC)[Si](C)(C)N(CC)CC
dose: 30.0 mg/kg/injection, schedule: Q01DX005 (ip), vehicle: saline with Tween-80
  T/C: 100 % of control
[7]
  T/C: 100 % of control
[8]
  T/C: 104 % of control

## O=C1C2CCC(C2)C1C(O)(C(F)(F)F)C(F)(F)F (stereo unspecified)
[13]
  T/C: 109 % of control
dose: 25.0 mg/kg/injection, schedule: Q04DX003 (ip), vehicle: saline with Tween-80
  T/C: 109 % of control
[14]
  T/C: 100 % of control
dose: 50.0 mg/kg/injection, schedule: Q04DX003 (ip), vehicle: saline with Tween-80
  T/C: 100 % of control
[15]
  T/C: 104 % of control
[1]
  T/C: 90 % of control

## O=c1c2ccccc2nc(-c2ccccc2)n1-c1cc(C(F)(F)F)cc(C(F)(F)F)c1
dose: 6.25 mg/kg/injection, schedule: Q01DX009 (ip), vehicle: saline with Tween-80
  T/C: 99 % of control
dose: 12.5 mg/kg/injection, schedule: Q01DX009 (ip), vehicle: saline with Tween-80
  T/C: 90 % of control

## Ic1ccc(N=Cc2ccc(C=Nc3ccc(I)cc3)cc2)cc1
dose: 12.5 mg/kg/injection, schedule: Q01DX009 (ip), vehicle: Klucel (hydroxypropylcellulose) (HPC)
  T/C: 99 % of control
dose: 25.0 mg/kg/injection, schedule: Q01DX009 (ip), vehicle: Klucel (hydroxypropylcellulose) (HPC)
  T/C: 95 % of control
[4]
  T/C: 100 % of control
[5]
  T/C: 86 % of control
[6]
  T/C: 89 % of control

## COC(=O)C1=CO[C@@H](OC2OC(CO)C(O)C(O)C2O)[C@@H]2[C@@H](CO)[C@@H](O)[C@@H](OC(=O)/C=C/c3ccc(O)c(O)c3)[C@H]12 (stereo partly specified)
dose: 7.25 mg/kg/injection, schedule: Q01DX005 (ip), vehicle: saline + alcohol
  T/C: 106 % of control
dose: 14.5 mg/kg/injection, schedule: Q01DX005 (ip), vehicle: saline + alcohol
  T/C: 107 % of control
dose: 29.0 mg/kg/injection, schedule: Q01DX005 (ip), vehicle: saline + alcohol
  T/C: 109 % of control
dose: 58.0 mg/kg/injection, schedule: Q01DX005 (ip), vehicle: saline + alcohol
  T/C: 113 % of control

## O=C(C(Br)(Br)Br)C(Br)(Br)c1ccccc1
[4]
  T/C: 101 % of control
[5]
  T/C: 101 % of control
[6]
  T/C: 99 % of control

## CC(C)CCC[C@@H](C)[C@H]1CC[C@H]2[C@@H]3CC[C@H]4C[C@H](N)CC[C@]4(C)[C@H]3CC[C@]12C
dose: 12.5 mg/kg/injection, schedule: Q01DX005 (ip), vehicle: Klucel (hydroxypropylcellulose) (HPC)
  T/C: 100 % of control
dose: 25.0 mg/kg/injection, schedule: Q01DX005 (ip), vehicle: Klucel (hydroxypropylcellulose) (HPC)
  T/C: 93 % of control
dose: 50.0 mg/kg/injection, schedule: Q01DX005 (ip), vehicle: Klucel (hydroxypropylcellulose) (HPC)
  T/C: 112 % of control and 97 % of control

## COC(=O)[C@H]1[C@H]2C[C@@H]3c4[nH]c5cc(OC)ccc5c4CCN3C[C@H]2C[C@@H](OC(=O)c2cccc(N)c2)[C@@H]1OC
[2]
  T/C: 101 % of control
[3]
  T/C: 97 % of control
[16]
  T/C: 97 % of control

## CCOP(=O)(CC(=O)c1cc2ccccc2[nH]1)OCC
dose: 12.5 mg/kg/injection, schedule: Q01DX009 (ip), vehicle: saline
  T/C: 100 % of control
dose: 25.0 mg/kg/injection, schedule: Q01DX009 (ip), vehicle: saline
  T/C: 92 % of control
dose: 50.0 mg/kg/injection, schedule: Q01DX009 (ip), vehicle: saline
  T/C: 106 % of control and 95 % of control
dose: 200.0 mg/kg/injection, schedule: Q01DX009 (ip), vehicle: saline
  T/C: 97 % of control

## CC(O)CNC(=O)Nc1ccccc1 (stereo unspecified)
[10]
  T/C: 97 % of control
[11]
  T/C: 95 % of control
[12]
  T/C: 88 % of control

## CC1CCC(c2ccoc2)N2C1CCC(C)(Sc1ccccc1)C2O (stereo unspecified)
dose: 5.5 mg/kg/injection, schedule: Q01DX004 (ip), vehicle: DMSO
  T/C: 95 % of control
dose: 11.0 mg/kg/injection, schedule: Q01DX004 (ip), vehicle: DMSO
  T/C: 115 % of control
dose: 22.0 mg/kg/injection, schedule: Q01DX004 (ip), vehicle: DMSO
  T/C: 113 % of control
dose: 25.0 mg/kg/injection, schedule: Q01DX001 (ip), vehicle: other
  T/C: 103 % of control
dose: 44.0 mg/kg/injection, schedule: Q01DX004 (ip), vehicle: DMSO
  T/C: 105 % of control
dose: 50.0 mg/kg/injection, schedule: Q01DX001 (ip), vehicle: other
  T/C: 98 % of control
dose: 100.0 mg/kg/injection, schedule: Q01DX001 (ip), vehicle: other
  T/C: 98 % of control

## O=[N+]([O-])c1cc2c(cc1C1OCCO1)OCO2
dose: 25.0 mg/kg/injection, schedule: Q01DX009 (ip), vehicle: other
  T/C: 102 % of control
dose: 50.0 mg/kg/injection, schedule: Q01DX009 (ip), vehicle: other
  T/C: 100 % of control
dose: 100.0 mg/kg/injection, schedule: Q01DX009 (ip), vehicle: other
  T/C: 100 % of control
dose: 200.0 mg/kg/injection, schedule: Q01DX009 (ip), vehicle: other
  T/C: 98 % of control
dose: 400.0 mg/kg/injection, schedule: Q01DX009 (ip), vehicle: other
  T/C: 98 % of control

## CC(OS(C)(=O)=O)C(Br)C(Br)C(C)OS(C)(=O)=O (stereo unspecified)
dose: 100.0 mg/kg/injection, schedule: Q01DX001 (ip), vehicle: Klucel (hydroxypropylcellulose) (HPC)
  T/C: 168 % of control
dose: 200.0 mg/kg/injection, schedule: Q01DX001 (ip), vehicle: Klucel (hydroxypropylcellulose) (HPC)
  T/C: 176 % of control

## N#Cc1c2ccccc2nc2ccccc12
[2]
  T/C: 100 % of control
[3]
  T/C: 96 % of control
[16]
  T/C: 89 % of control

## OCCc1cc[nH]c1
[15]
  T/C: 104 % of control
dose: 200.0 mg/kg/injection, schedule: Q01DX009 (ip), vehicle: saline with Tween-80
  T/C: 104 % of control
dose: 400.0 mg/kg/injection, schedule: Q01DX009 (ip), vehicle: saline with Tween-80
  T/C: 95 % of control

## COc1cc2c(c(OC)c1OC)-c1ccc(SC)c(=O)cc1C(NC(=S)NC1OCC(OC(C)=O)C(OC(C)=O)C1OC(C)=O)CC2 (stereo unspecified)
[13]
  T/C: 178 % of control and 184 % of control
[14]
  T/C: 200 % of control and 191 % of control
[15]
  T/C: 93 % of control and 101 % of control

## COC(=O)/C=C1\C(=O)OC(C)(C)C1(C)C
[4]
  T/C: 111 % of control
[5]
  T/C: 100 % of control
[6]
  T/C: 103 % of control
